Test results taken from patent US20170265465A1, “BIORATIONAL TREATMENT PRODUCTS AND METHODS OF USING SAME” (Board of Trustees of Michigan State University, priority 2014, published 2017).

Key:
Format in all cases: in vivo
[1] = test system: creeping bentgrass (Agrostis palustris) putting green; assay: Example 11: dried clippings weights; details: urea only 0.2 lb. N/1000 ft^2, no bio-adjuvant
Description: Some biomass ratings were subjective visual estimations based on appearance of a combination of increased biomass and increased density on a 1 (least increase) to 9 (most increase) scale. Objective biomass ratings were also performed based on an increase in dried weight of clippings. Clippings were collected over pre-measured plot areas in each treatment replicate using a Toro® brand walk-behind greens mower Model Greensmaster 8000 at the height described in this Example and dried in a drying oven (60° C.) for approximately 48 hours before being weighed.
(§1) Treatments were applied in the same manner and using the same equipment as previously described in Example 1. Turfgrass quality ratings and biomass ratings were performed as described in Example 1. Clippings were also collected as described in Example 1.
(§2) Treatments were applied once only to 2 ft ([…])×10.5 ft (3.2 m) plots of turfgrass on Apr. 1, 2015, while the turfgrass was still in winter dormancy (desiccated, brown, and thin). No additional applications were made to the study area. The study was rated visually for turfgrass biomass increase on Apr. 3, 2015 (2 days after treatment), on Apr. 11, 2015, and on Apr. 17, 2015. Turfgrass quality ratings were taken on Apr. 11, 2015 and Apr. 17, 2015. Turfgrass clippings were collected, dried, and weighed on Apr. 19, 2015 and May 2, 2015.

[2] = test system: creeping bentgrass (Agrostis palustris) putting green; assay: Example 11: turfgrass quality rating; details: scale 1-9, urea 0.2 lb. N/1000 ft^2
Description: as §1, §2

[3] = test system: creeping bentgrass (Agrostis palustris) putting green; assay: Example 11, 2015 spring green-up (dormancy break) study: visual turfgrass biomass rating; details: urea only 0.2 lb. N/1000 ft^2, no bio-adjuvant; scale 1-5
Description: […] Objective biomass ratings were also performed based on an increase in dried weight of clippings. Clippings were collected over pre-measured plot areas in each treatment replicate using a Toro® brand walk-behind greens mower Model Greensmaster 8000 at the height described in this Example and dried in a drying oven (60° C.) for approximately 48 hours before being weighed.
as §1, §2

With `NC(N)=O` [Urea only] the “Clippings (Biomass) Dry wt (g) Apr. 19, 2015 Mean” value [1] was 4.623 g, the “Clippings (Biomass) Dry wt (g) May 2, 2015 Mean” value [1] was 6.175 g and the “Turfgrass Quality” value ([2]; Apr. 11, 2015) was 5.5. The “Turfgrass Quality” value ([2]; Apr. 17, 2015) was 5.5, the “Turfgrass Quality” value ([2]; Apr. 25, 2015) was 5.75 and the “Appearance (Biomass Increase) Apr. 3, 2015 Mean” value [3] was 1.5. The “Appearance (Biomass Increase) Apr. 11, 2015 Mean” value [3] was 2.5, the “Appearance (Biomass Increase) Apr. 17, 2015 Mean” value [3] was 3 and the “Appearance (Biomass Increase) Apr. 25, 2015 Mean” value [3] was 2.25.
